Measurements from patent publication US10363239B2, “Method for inhibiting growth of cancer cells” (Pain Therapeutics, Inc., priority 2013, dated 2019).
Where two headings read alike, the source gives them in different places.

Assays:
[1] = target: FLNA pentapeptide of SEQ ID NO: 1 (Bn-VAKGL) (Homo sapiens, UniProt P21333); assay: FITC-NLX-based FLNA screening assay (inhibition of FITC-naloxone binding to Bn-VAKGL on streptavidin plates); conditions: for inhibition at 0.01 µM / inhibition at 0.1 µM / inhibition at 1 µM: 10 nM FITC-NLX
mu opiate receptor (MOR) = assay: MOR agonist activity using [35S]GTPγS binding assay in striatal membranes; type: biochemical; conditions: for MOR agonist activity ([35S]GTPγS binding), FLNA-Binding Compound as Agonist 1 μM + BFNA: 1 μM compound + 1 μM β-funaltrexamine
Protocol: To assess the mu opiate receptor (MOR) agonist activity of positive compounds from the FLNA screening, compounds were tested in a [^35S]GTPγS binding assay using striatal membranes. […] This assay measures a functional consequence of receptor occupancy at one of the earliest receptor-mediated events. The assay permits traditional pharmacological parameters of potency, efficacy and antagonist affinity, with the advantage that agonist measures are not subjected to amplification or other modulation that may occur when analyzing parameters further downstream of the receptor.
Thus, striatal tissue was homogenized in 10 volumes of ice cold 25 mM HEPES buffer, pH 7.4, which contained 1 mM EGTA, 100 mM sucrose, 50 μg/ml leupeptin, 0.04 mM PMSF, 2 μg/ml soybean trypsin inhibitor and 0.2% 2-mercaptoethanol. The homogenates were centrifuged at 800×g for 5 minutes and the supernatants were centrifuged at 49,000×g for 20 minutes. The resulting pellets were suspended in 10 volume of reaction buffer, which contained 25 mM HEPES, pH 7.5, 100 mM NaCl, 50 μg/ml leupeptin, 2 μg/ml soybean trypsin inhibitor, 0.04 mM PMSF and 0.02% […].
The resultant striatal membrane preparation (200 μg) was admixed and maintained (incubated) at 30° C. for 5 minutes in reaction buffer as above that additionally contained 1 mM MgCl2 and 0.5 nM [^35S]GTPγS (0.1 μCi/assay, PerkinElmer Life and Analytical Sciences) in a total volume of 250 μl and continued for 5 minutes in the absence or presence of 0.1-10 μM of an assayed compound of interest. The reaction was terminated by dilution with 750 μl of ice-cold reaction buffer that contained 20 mM MgCl2 and 1 mM EGTA and immediate centrifugation at 16,000×g for 5 minutes.
The resulting pellet was solubilized by sonicating for 10 seconds in 0.5 ml of immunoprecipitation buffer containing 0.5% digitonin, 0.2% sodium cholate and 0.5% NP-40. Normal rabbit serum (1 μl) was added to 1 ml of lysate and incubated at 25° C. for 30 minutes. Nonspecific immune complexes were removed by incubation with 25 μl of protein A/G-conjugated agarose beads at 25° C. for 30 minutes followed by centrifugation at 5,000×g at 4° C. for 5 minutes. The supernatant was divided and separately incubated at 25° C. for 30 minutes with antibodies raised against Gαo proteins (1:1,000 dilutions).
The immunocomplexes so formed were collected by incubation at 25° C. for 30 minutes with 40 μl of agarose-conjugated protein A/G beads and centrifugation at 5,000×g at 4° C. for 5 minutes. The pellet was washed and suspended in buffer containing 50 mM Tris-HCl, pH 8.0, and 1% NP-40. The radioactivity in the suspension was determined by liquid scintillation spectrometry.

[2] = FLNA-binding compound 0.01 μM, read-out: Percent Binding Inhibition
[3] = FLNA-binding compound 0.1 μM, read-out: Percent Binding Inhibition
[4] = FLNA-binding compound 1 μM, read-out: Percent Binding Inhibition
[5] = read-out: Percent Binding Inhibition, FLNA-binding compound 0.01 μM
[6] = read-out: Percent Binding Inhibition, FLNA-binding compound 0.1 μM
[7] = read-out: Percent Binding Inhibition, FLNA-binding compound 1 μM
[8] = 0.1 μM compound relative to DAMGO
[9] = 1 μM compound + BFNA relative to DAMGO + BFNA
[10] = 1 μM compound relative to DAMGO
[11] = Series C-1, 0.1 μM compound, relative to DAMGO
[12] = Series C-1, 0.1 μM compound, [35S]GTPγS binding to Gαo, striatal membranes
[13] = Series C-1, 1 μM compound + 1 μM β-FNA
[14] = Series C-1, 1 μM compound + β-FNA, relative to DAMGO + BFNA
[15] = Series C-1, 1 μM compound, relative to DAMGO
[16] = Series C-1, 1 μM compound, [35S]GTPγS binding to Gαo, striatal membranes

COc1ccc(CCC(=O)CC2c3c(cc4c(c3OC)OCO4)CCN2C)cc1 (centres unmarked) [Compound B0047]
inhibition at 0.01 µM [1, 2]: 30.7%
inhibition at 0.1 µM [1, 3]: 37.6%
inhibition at 1 µM [1, 4]: 47.1%
% DAMGO (0.1 μM) (mu opiate receptor (MOR); Series B, 0.1 μM compound, relative to DAMGO): 106.3%
MOR agonist activity, percent [35S]GTPγS binding at the stated compound concentration (mu opiate receptor (MOR); Series B, 0.1 μM compound, [35S]GTPγS binding to Gαo, striatal membranes): 187.8%
MOR agonist activity, percent [35S]GTPγS binding at the stated compound concentration (mu opiate receptor (MOR); Series B, 1 μM compound + 1 μM β-FNA): 68.4%
% DAMGO + BFNA (mu opiate receptor (MOR); Series B, 1 μM compound + β-FNA, relative to DAMGO + BFNA): 260.1%
% DAMGO (1 μM) (mu opiate receptor (MOR); Series B, 1 μM compound, relative to DAMGO): 92.6%
MOR agonist activity, percent [35S]GTPγS binding at the stated compound concentration (mu opiate receptor (MOR); Series B, 1 μM compound, [35S]GTPγS binding to Gαo, striatal membranes): 235.6%

COc1ccc(OCC(O)CN2CC(C)OC(C)C2)cc1 (centres unmarked) [Compound A0048]
inhibition at 0.01 µM [1, 5]: 38.5%
inhibition at 0.1 µM [1, 6]: 44%
inhibition at 1 µM [1, 7]: 46.9%
MOR agonist activity ([35S]GTPγS binding), FLNA-Binding Compound as Agonist 0.1 μM (mu opiate receptor (MOR); 0.1 μM compound): 233.7%
% DAMGO (0.1 μM) (mu opiate receptor (MOR); [8]): 119.1%
MOR agonist activity ([35S]GTPγS binding), FLNA-Binding Compound as Agonist 1 μM (mu opiate receptor (MOR); 1 μM compound): 302.9%
MOR agonist activity ([35S]GTPγS binding), FLNA-Binding Compound as Agonist 1 μM + BFNA (mu opiate receptor (MOR)): 167.2%
% DAMGO + BFNA (mu opiate receptor (MOR); [9]): 226.3%
% DAMGO (1 μM) (mu opiate receptor (MOR); [10]): 109.7%

O=S(=O)(c1ccc(F)cc1)N1CCC2(CC1)OCCN2S(=O)(=O)c1ccc(F)cc1 [Compound C0029]
inhibition at 0.01 µM [1, 5]: 38.6%
inhibition at 0.1 µM [1, 6]: 43.2%
inhibition at 1 µM [1, 7]: 50.5%
% DAMGO (0.1 μM) (mu opiate receptor (MOR); [11]): 91.2%
Concentration of FLNA-Binding Compound as Agonist 0.1 μM (mu opiate receptor (MOR); [12]): 175.4%
Concentration of FLNA-Binding Compound as Agonist 1 μM + BFNA (mu opiate receptor (MOR); [13]): 16.6%
% DAMGO + BFNA (mu opiate receptor (MOR); [14]): 37.8%
% DAMGO (1 μM) (mu opiate receptor (MOR); [15]): 113.1%
Concentration of FLNA-Binding Compound as Agonist 1 μM (mu opiate receptor (MOR); [16]): 308.8%

CC1CN(CC(O)COc2ccccc2C(C)C)CC(C)O1 (centres unmarked) [Compound A0029]
inhibition at 0.01 µM [1, 2]: 44.4%
inhibition at 0.1 µM [1, 3]: 44.4%
inhibition at 1 µM [1, 4]: 50.8%
MOR agonist activity ([35S]GTPγS binding), FLNA-Binding Compound as Agonist 0.1 μM (mu opiate receptor (MOR); 0.1 μM compound): 173.8%
% DAMGO (0.1 μM) (mu opiate receptor (MOR); [8]): 98.4%
MOR agonist activity ([35S]GTPγS binding), FLNA-Binding Compound as Agonist 1 μM (mu opiate receptor (MOR); 1 μM compound): 206.5%
MOR agonist activity ([35S]GTPγS binding), FLNA-Binding Compound as Agonist 1 μM + BFNA (mu opiate receptor (MOR)): 22.3%
% DAMGO + BFNA (mu opiate receptor (MOR); [9]): 84.8%
% DAMGO (1 μM) (mu opiate receptor (MOR); [10]): 81.2%

O=S(=O)(c1csc2ccccc12)N1CCC2(CC1)OCCN2S(=O)(=O)c1csc2ccccc12 [Compound C0150M]
inhibition at 0.01 µM [1, 5]: 47.3%
inhibition at 0.1 µM [1, 6]: 51.8%
inhibition at 1 µM [1, 7]: 61.4%
% DAMGO (0.1 μM) (mu opiate receptor (MOR); [11]): 97.2%
Concentration of FLNA-Binding Compound as Agonist 0.1 μM (mu opiate receptor (MOR); [12]): 167.1%
Concentration of FLNA-Binding Compound as Agonist 1 μM + BFNA (mu opiate receptor (MOR); [13]): 93.4%
% DAMGO + BFNA (mu opiate receptor (MOR); [14]): 173.2%
% DAMGO (1 μM) (mu opiate receptor (MOR); [15]): 129.8%
Concentration of FLNA-Binding Compound as Agonist 1 μM (mu opiate receptor (MOR); [16]): 423.1%

Cc1ccc(C(C)C)c(OCC(O)CN2CC(C)OC(C)C2)c1 (centres unmarked) [Compound A0028]
inhibition at 0.01 µM [1, 2]: 39.5%
inhibition at 0.1 µM [1, 3]: 43.8%
inhibition at 1 µM [1, 4]: 50.5%
MOR agonist activity ([35S]GTPγS binding), FLNA-Binding Compound as Agonist 0.1 μM (mu opiate receptor (MOR); 0.1 μM compound): 143.6%
% DAMGO (0.1 μM) (mu opiate receptor (MOR); [8]): 81.3%
MOR agonist activity ([35S]GTPγS binding), FLNA-Binding Compound as Agonist 1 μM (mu opiate receptor (MOR); 1 μM compound): 187.7%
MOR agonist activity ([35S]GTPγS binding), FLNA-Binding Compound as Agonist 1 μM + BFNA (mu opiate receptor (MOR)): 116.7%
% DAMGO + BFNA (mu opiate receptor (MOR); [9]): 443.7%
% DAMGO (1 μM) (mu opiate receptor (MOR); [10]): 73.8%

CC1CCC(C(C)C)C(OCC(O)CN2CCCC2)C1 (centres unmarked) [Compound A0001]
inhibition at 0.01 µM [1, 5]: 39.7%
inhibition at 0.1 µM [1, 6]: 45.6%
inhibition at 1 µM [1, 7]: 52.4%
MOR agonist activity ([35S]GTPγS binding), FLNA-Binding Compound as Agonist 0.1 μM (mu opiate receptor (MOR); 0.1 μM compound): 94.3%
% DAMGO (0.1 μM) (mu opiate receptor (MOR); [8]): 63.1%
MOR agonist activity ([35S]GTPγS binding), FLNA-Binding Compound as Agonist 1 μM (mu opiate receptor (MOR); 1 μM compound): 181.7%
MOR agonist activity ([35S]GTPγS binding), FLNA-Binding Compound as Agonist 1 μM + BFNA (mu opiate receptor (MOR)): 22.2%
% DAMGO + BFNA (mu opiate receptor (MOR); [9]): 83.8%
% DAMGO (1 μM) (mu opiate receptor (MOR); [10]): 78.9%

NS(=O)(=O)c1ccc(S(=O)(=O)N2CCC3(CC2)NCCO3)cc1 [Compound C0034-3]
inhibition at 0.01 µM [1, 2]: 29.6%
inhibition at 0.1 µM [1, 3]: 38.3%
inhibition at 1 µM [1, 4]: 44.8%

O=C1CC[C@@]2(O)[C@H]3Cc4ccc(O)c5c4[C@@]2(CCN3CC2CC2)[C@H]1O5 [NTX, naltrexone, reference compound]
Inhibition of 10 nM FITC-conjugated NLX binding to biotinylated FLNA pentapeptide (FIG. 28) ([1]; 1 μM): inhibit well

CN1CC[C@]23c4c5ccc(O)c4O[C@H]2[C@@H](O)C=C[C@H]3[C@H]1C5 [morphine, reference compound]
Inhibition of 10 nM FITC-conjugated NLX binding to biotinylated FLNA pentapeptide (FIG. 28) ([1]; 10 μM): minimal binding inhibition

C=CCN1CC[C@]23c4c5ccc(O)c4O[C@H]2C(=O)CC[C@@]3(O)[C@H]1C5 [Naloxone Control, naloxone, reference compound]
inhibition at 0.01 µM [1, 5]: 39.9%
inhibition at 0.1 µM [1, 6]: 46.3%
inhibition at 1 µM [1, 7]: 50.9%
